Reference: US20090018176A1, “FUNGICIDE COMPOSITION COMPRISING AN ARYLAMIDINE DERIVATIVE AND TWO KNOWN FUNGICIDE COMPOUNDS” (Bayer CropScience AG, priority 2005, published 2009)

Legend:
Pyrenophora teres = test: In vivo curative test on Pyrenophora teres (barley); settings: 50 g/ha of each active compound, evaluation 12 days after inoculation, 0% = control, 100% = no infection
Experimental: In Vivo Curative Test on Pyrenophora Teres (Barley) [table] To produce a suitable preparation of active compound, 1 part by weight of active compound or active compound combination is mixed with the stated amounts of solvent and emulsifier, and the concentrate is diluted with water to the desired concentration. To test for curative activity, young plants are sprayed with a conidia suspension of Pyrenophora teres. The plants remain in an incubation cabinet at 20° C. and 100% relative atmospheric humidity for 48 hours. The plants are then sprayed with the preparation of active compound at the stated application rate. The plants are placed in a greenhouse at a temperature of about 20° C. and a relative atmospheric humidity of about 80%. Evaluation is carried out 12 days after the inoculation. 0% means an efficacy which corresponds to that of the control, whereas an efficacy of 100% means that no infection is observed.

Puccinia recondita = test: In vivo preventive test on Puccinia recondita f. sp. tritici (wheat brown rust); settings: 50 g/ha of each active compound, evaluation 12 days after inoculation, 0% = control, 100% = no infection
Experimental: In Vivo Preventive Test on Puccinia Recondite f. Sp. Tritici (Wheat Brown Rust) [table] To produce a suitable preparation of active compound, 1 part by weight of active compound or active compound combination is mixed with the stated amounts of solvent and emulsifier, and the concentrate is diluted with water to the desired concentration. To test for preventive activity, young plants are […] at the stated rate of application. The plants remain for 24 hours in an incubation cabinet at 20° C. and a relative atmospheric humidity of 100%. The plants are placed in a greenhouse at a temperature of approximately 20° C. and a relative atmospheric humidity of approximately 80% to promote the development of rust pustules. Evaluation is carried out 12 days after the inoculation. 0% means an efficacy which corresponds to that of the control, whereas an efficacy of 100% means that no infection is observed. […] Compound 1 according to the invention is N-ethyl-N-methyl-N′-[4-(3-t-butyl-4-chlorphenoxy)-2,5 xylyl]-formamidine.

Structure (SMILES)	Experimental efficacy (%) (Pyrenophora teres)	Experimental efficacy (%) (Puccinia recondita)
CCN(C)C=Nc1cc(C)c(Oc2ccc(Cl)c(C(C)(C)C)c2)cc1C [compound 1, N-ethyl-N-methyl-N′-[4-(3-t-butyl-4-chlorphenoxy)-2,5 xylyl]-formamidine]	0	22
OC(Cc1ccccc1Cl)(Cn1nc[nH]c1=S)C1(Cl)CC1 (stereo not drawn) [prothioconazole]	0	–
CCCN(CC)CC1COC2(CCC(C(C)(C)C)CC2)O1 (stereo not drawn) [spriroxamine, spiroxamine]	50	0
CC(C)(C)C(O)(CCc1ccc(Cl)cc1)Cn1cncn1 (stereo not drawn) [tebuconazole]	–	78
